ChEMBL document CHEMBL1201862, “PubChem BioAssay data set” (2004)
Values joined by “and” are separate entries in the source; they are usually repeats but may differ in a detail not shown here. Identical values can stand only once. Active and inactive are the calls of the source.

How the values were obtained:
[1] = molecular target: Phospholipase D1 (Homo sapiens, UniProt Q13393); assay: PLD1 inhibitor potency in cells, dose response (AID 602151); assay type: functional;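 also: cellular PLD1 assay in Calu-1 cells stimulated with PMA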
Sequence of Phospholipase D1 (Q13393 whole entry): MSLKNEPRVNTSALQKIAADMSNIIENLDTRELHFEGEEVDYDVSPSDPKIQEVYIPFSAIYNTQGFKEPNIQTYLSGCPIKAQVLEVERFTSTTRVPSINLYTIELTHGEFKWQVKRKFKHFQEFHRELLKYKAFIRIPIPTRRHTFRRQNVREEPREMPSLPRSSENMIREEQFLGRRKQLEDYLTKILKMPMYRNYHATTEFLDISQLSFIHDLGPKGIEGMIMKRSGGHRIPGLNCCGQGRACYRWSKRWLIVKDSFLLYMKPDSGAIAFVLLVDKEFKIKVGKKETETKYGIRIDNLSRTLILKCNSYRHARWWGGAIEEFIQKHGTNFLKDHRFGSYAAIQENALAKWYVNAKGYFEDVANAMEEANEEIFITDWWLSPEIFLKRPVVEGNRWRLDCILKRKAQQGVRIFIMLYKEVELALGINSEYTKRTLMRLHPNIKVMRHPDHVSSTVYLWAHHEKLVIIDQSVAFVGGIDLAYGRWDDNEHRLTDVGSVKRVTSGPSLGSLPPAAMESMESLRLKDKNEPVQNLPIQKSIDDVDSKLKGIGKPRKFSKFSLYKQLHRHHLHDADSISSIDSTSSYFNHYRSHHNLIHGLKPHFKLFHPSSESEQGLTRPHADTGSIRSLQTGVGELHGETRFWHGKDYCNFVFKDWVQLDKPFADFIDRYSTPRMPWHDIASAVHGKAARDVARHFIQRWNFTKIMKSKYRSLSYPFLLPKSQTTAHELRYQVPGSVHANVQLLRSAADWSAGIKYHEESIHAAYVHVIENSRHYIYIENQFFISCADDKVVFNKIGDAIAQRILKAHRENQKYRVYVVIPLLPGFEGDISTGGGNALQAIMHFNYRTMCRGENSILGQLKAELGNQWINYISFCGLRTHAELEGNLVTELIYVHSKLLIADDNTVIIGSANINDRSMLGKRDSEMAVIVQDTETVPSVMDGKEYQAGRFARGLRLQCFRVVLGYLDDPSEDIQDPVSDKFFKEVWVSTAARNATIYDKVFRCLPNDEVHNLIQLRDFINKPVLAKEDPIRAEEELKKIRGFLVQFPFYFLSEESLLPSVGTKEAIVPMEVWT

[2] = molecular target: Phospholipase D2 (Homo sapiens, UniProt O14939); assay: PLD2 inhibitor potency in cells, dose response (AID 602147); assay type: functional;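 also: cellular assay in HEK293 cells overexpressing GFP-tagged PLD2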
Sequence of Phospholipase D2 (O14939 whole entry): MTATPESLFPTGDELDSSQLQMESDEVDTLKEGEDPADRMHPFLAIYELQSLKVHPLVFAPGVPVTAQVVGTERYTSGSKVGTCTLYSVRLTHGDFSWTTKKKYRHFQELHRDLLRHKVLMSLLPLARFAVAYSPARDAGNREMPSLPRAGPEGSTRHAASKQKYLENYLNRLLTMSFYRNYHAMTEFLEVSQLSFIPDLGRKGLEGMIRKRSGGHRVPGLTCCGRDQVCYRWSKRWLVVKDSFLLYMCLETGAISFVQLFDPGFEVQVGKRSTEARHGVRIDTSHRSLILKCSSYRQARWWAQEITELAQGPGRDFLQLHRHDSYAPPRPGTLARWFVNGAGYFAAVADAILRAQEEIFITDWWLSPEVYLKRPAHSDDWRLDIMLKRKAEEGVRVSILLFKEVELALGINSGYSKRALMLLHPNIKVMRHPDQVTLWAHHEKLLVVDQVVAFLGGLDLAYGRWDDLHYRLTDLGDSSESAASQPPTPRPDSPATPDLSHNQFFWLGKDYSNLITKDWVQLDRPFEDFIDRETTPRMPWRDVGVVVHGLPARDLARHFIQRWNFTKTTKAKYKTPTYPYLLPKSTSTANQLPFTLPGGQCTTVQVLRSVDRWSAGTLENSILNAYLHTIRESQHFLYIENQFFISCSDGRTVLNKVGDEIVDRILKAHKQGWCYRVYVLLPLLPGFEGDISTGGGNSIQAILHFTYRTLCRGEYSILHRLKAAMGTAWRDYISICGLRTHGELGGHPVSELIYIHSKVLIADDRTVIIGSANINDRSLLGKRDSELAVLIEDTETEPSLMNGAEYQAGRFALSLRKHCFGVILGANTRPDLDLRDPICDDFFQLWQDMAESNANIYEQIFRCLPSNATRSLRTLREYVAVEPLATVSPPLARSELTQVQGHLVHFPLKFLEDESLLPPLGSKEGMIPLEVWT

[3] = molecular target: Cytochrome P450 2C19 (Homo sapiens, UniProt P33261); assay: Cytochrome panel assay with activity outcomes. Panel member name: p450-cyp2c19 Compounds with AC50 equal or less than 10 uM are considered active; assay type: functional; details: read-out: AC50
Sequence of Cytochrome P450 2C19 (P33261 whole entry): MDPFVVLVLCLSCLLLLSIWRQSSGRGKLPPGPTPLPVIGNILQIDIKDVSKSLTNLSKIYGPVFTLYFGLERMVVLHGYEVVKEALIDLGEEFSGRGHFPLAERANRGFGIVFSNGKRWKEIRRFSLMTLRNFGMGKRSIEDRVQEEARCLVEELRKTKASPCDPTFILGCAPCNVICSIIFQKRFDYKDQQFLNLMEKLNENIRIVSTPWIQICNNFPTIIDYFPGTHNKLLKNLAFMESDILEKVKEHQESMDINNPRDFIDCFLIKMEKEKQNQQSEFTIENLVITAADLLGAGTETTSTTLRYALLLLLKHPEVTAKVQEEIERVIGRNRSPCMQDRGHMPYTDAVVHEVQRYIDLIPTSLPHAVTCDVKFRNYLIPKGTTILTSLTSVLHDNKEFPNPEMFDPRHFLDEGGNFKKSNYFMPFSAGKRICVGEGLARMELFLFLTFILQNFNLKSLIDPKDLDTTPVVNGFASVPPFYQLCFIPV

[4] = molecular target: Cytochrome P450 2D6 (Homo sapiens, UniProt P10635);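 also: CYP2D6 member of a cytochrome P450 panel assay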
Sequence of Cytochrome P450 2D6 (P10635 whole entry): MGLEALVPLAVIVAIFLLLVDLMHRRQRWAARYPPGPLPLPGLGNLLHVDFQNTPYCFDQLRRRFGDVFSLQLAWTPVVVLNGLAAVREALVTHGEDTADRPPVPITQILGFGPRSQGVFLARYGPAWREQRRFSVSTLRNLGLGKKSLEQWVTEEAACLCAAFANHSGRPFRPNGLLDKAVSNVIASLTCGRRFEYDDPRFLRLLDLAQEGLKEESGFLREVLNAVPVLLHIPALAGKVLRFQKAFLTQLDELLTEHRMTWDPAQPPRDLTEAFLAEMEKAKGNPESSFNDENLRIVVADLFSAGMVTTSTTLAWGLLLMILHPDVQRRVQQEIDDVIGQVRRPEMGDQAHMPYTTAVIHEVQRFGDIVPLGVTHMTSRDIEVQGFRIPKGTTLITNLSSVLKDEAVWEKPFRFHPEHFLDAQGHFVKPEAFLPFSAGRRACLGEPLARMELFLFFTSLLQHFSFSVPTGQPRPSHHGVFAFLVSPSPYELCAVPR

[5] = molecular target: Voltage-gated inwardly rectifying potassium channel KCNH2 (Homo sapiens, UniProt Q12809); details: Potency;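 also: confirmatory quantitative high-throughput screen measuring inhibition of hERG channel activity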
[6] = C. albicans growth with fluconazole, confirmation, fluorescence, retest (AID 2467); assay type: functional, cell-based
[7] = molecular target: Serine/threonine-protein phosphatase (Candida dubliniensis (strain CD36 / CBS 7987 / NCPF 3949 / NRRLY-17841) (Yeast), UniProt B9W6M3); assay: calcineurin pathway inhibitors in yeast reporter, dose response, S. cerevisiae, CDRE-lacZ, luminescence, secondary (AID 2388); assay type: functional, cell-based;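 also: yeast reporter cells carrying a calcineurin-responsive lacZ construct stimulated with calcium chloride; luminescent beta-galactosidase reporter signal in whole cells rather than isolated phosphatase activity; potency for inhibition where a drop in reporter signal means calcineurin blockade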
Sequence of Serine/threonine-protein phosphatase (B9W6M3 whole entry): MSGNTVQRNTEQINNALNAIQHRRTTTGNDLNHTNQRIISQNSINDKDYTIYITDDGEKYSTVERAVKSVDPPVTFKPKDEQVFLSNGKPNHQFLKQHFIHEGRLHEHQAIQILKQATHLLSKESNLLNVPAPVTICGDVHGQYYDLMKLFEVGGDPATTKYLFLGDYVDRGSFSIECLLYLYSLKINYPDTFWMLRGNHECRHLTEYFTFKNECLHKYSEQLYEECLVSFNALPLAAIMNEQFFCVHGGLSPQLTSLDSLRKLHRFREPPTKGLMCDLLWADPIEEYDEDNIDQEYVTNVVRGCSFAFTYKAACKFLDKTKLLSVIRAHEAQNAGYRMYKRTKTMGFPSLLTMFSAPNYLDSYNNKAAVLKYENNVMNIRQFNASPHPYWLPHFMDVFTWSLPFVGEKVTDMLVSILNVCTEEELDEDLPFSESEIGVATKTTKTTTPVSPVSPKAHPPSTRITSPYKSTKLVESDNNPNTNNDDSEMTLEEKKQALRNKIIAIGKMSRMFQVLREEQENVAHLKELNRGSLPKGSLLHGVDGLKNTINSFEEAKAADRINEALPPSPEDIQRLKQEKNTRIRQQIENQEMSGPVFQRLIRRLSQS

[8] = molecular target: ATP-dependent molecular chaperone HSP82 (Candida albicans (strain WO-1) (Yeast), UniProt C4YTQ8); assay: loss of DOC-induced GRE-beta-galactosidase reporter signal, dose response, Hsp90 inhibitor project, S. cerevisiae, luminescence (AID 2400); assay type: functional, cell-based;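 also: beta-galactosidase luminescence from glucocorticoid response element reporter as proxy for Hsp90 function; inhibitor potency where signal loss means Hsp90 inhibition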
Sequence of ATP-dependent molecular chaperone HSP82 (C4YTQ8 whole entry): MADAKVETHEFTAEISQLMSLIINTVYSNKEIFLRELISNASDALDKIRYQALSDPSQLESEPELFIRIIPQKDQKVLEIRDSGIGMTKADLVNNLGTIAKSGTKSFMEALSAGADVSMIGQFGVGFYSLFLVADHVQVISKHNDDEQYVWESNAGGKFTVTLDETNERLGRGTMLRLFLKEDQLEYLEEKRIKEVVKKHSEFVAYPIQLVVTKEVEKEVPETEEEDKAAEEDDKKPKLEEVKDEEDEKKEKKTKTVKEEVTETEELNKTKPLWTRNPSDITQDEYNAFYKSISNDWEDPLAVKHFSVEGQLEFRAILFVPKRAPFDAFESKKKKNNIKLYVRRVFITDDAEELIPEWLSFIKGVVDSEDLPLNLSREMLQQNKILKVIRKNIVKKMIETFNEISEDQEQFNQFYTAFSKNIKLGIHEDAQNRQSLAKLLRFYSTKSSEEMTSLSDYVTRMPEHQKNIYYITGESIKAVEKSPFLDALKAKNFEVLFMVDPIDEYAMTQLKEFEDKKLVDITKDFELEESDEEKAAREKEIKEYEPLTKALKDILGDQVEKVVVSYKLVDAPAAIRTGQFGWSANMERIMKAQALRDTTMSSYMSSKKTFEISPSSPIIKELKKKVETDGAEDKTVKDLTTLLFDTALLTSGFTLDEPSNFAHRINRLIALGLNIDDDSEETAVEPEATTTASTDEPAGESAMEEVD

[9] = molecular target: Cytochrome P450 3A4 (Homo sapiens, UniProt P08684); details: Potency;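 also: confirmatory qHTS run detecting inhibitors and substrates of CYP3A4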
Sequence of Cytochrome P450 3A4 (P08684 whole entry): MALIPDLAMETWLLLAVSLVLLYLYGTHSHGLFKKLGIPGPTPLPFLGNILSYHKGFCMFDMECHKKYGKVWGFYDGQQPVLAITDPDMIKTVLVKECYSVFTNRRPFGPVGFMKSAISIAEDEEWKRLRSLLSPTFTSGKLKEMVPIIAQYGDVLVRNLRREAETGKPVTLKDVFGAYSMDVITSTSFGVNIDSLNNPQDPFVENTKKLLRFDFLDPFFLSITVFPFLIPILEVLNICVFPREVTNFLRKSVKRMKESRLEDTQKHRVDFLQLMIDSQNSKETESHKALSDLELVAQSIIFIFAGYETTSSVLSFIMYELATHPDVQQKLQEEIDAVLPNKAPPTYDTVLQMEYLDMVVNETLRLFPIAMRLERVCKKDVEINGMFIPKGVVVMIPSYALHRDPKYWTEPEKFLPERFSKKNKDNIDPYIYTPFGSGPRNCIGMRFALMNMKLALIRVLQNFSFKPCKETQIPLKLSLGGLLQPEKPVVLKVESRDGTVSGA

SMILES: C[C@@H](CN1CCC(n2c(=O)[nH]c3cc(I)ccc32)CC1)NC(=O)C1CC1c1ccccc1 (stereo partly specified)
- IC50 [1]: 0.021 µM (active)
- IC50 [2]: 6.5 µM (active)

SMILES: CC(C)[C@@H](CN1CCC2(CC1)C(=O)NCN2c1ccccc1)NC(=O)c1ccc2ccccc2c1
- IC50 [1]: 0.14 µM (active)
- IC50 [2]: 1.5 µM (active)

SMILES: O=c1oc(Cl)c(Cl)c2ccccc12
- AC50 [3]: 25.1 µM (inconclusive)
- AC50 [4]: 31.6 µM (inconclusive)
- AC50 [5]: 2.82 µM (inconclusive)

SMILES: C[C@]12CC[C@H](O)C[C@@H]1CC[C@@H]1[C@@H]2CC[C@]2(C)C(=O)CC[C@@H]12 [EPIANDROSTERONE]
- EC50 [6]: 877 nM (active) and 1.15 µM (active)
- EC50 [7]: > 180 µM (inactive)
- EC50 [8]: 24.2 µM (active)
- AC50 [9]: 20 µM (inconclusive)
